Results from publication PMC12376244 (Chembiochem, 2025).

Key:
[1] = test system: CmSTC1; experiment: malachite green phosphate release assay, coupled to yeast pyrophosphatase; assay type: biochemical, Cubamyces menziesii; conditions: 5 mM MgCl2, Tris-HCl/MES/CAPS buffer, pH 7.8; FDP range 3.125 to 50 or 75 μM
[2] = test system: CmSTC3; experiment: as above; assay type: biochemical, Cubamyces menziesii; conditions: 5 mM MgCl2, Tris-HCl/MES/CAPS buffer, pH 7.8; FDP range 3.125 to 50 or 75 μM

Km [1]: 68.2 µM
Km [2]: 19.9 µM
SMILES: CC(C)=CCC/C(C)=C/CC/C(C)=C/COP(=O)(O)OP(=O)(O)O [FDP]
